The source of these data is article PMC12808645 (Nature Communications, 2025).

Test [1] deals with Nan-Iav. Type of test: cell-based, Halyomorpha halys.
Test [2] addresses NanY177F-Iav. Type of test: binding, Halyomorpha halys.
Test [3] deals with NanY172F-Iav. The class given is binding, Halyomorpha halys.
Test [4] has as its system NanY177A-Iav. The class given is binding, Halyomorpha halys.
For test [5], the system named is NanY172A-Iav. The class given is binding, Halyomorpha halys.
Test [6] relates to NanY177F-Iav. The class given is binding, Halyomorpha halys. The source holds these as a separate data set.
For test [7], the system named is NanY177A-Iav. In words: Whole-cell electrophysiology, NanY177A-Iav. The class given is cell-based, Halyomorpha halys.
Test [8] addresses NanY172A-Iav. Type of test: binding, Halyomorpha halys. The source holds these as a separate data set.
Test [9] concerns NanY177A-Iav. The class given is binding, Halyomorpha halys. The source holds these as a separate data set.
The subject of test [10] is NanY172F-Iav. Type of test: binding, Halyomorpha halys. The source holds these as a separate data set.

What is called Ki is the equilibrium dissociation constant of an inhibitor or competing ligand from its target. As a reminder, the EC50 is the concentration that produces a half-maximal response.

The structures appear in SMILES notation.

On to `N.N.N.N.N.N.N.N.N.N.N.N.N.N.[Cl-].[Cl-].[Cl-].[Cl-].[Cl-].[Cl-].[O-2].[O-2].[Ru+3].[Ru+3].[Ru+4]` [ruthenium red], for which, in test [1] (pore blocker), the “effect on AP-elicited current” value was “inhibited”.

With `C[C@]1(COC(=O)C2CC2)[C@@H]2C[C@H](O)[C@@]3(C)Oc4cc(-c5cccnc5)oc(=O)c4[C@H](O)[C@@H]3[C@@]2(C)CC[C@@H]1OC(=O)C1CC1` [[^3H]-AP], in [2], the “[3H]-AP Kd compared with WT” value was “similar”. In addition, the “difference in [3H]-AP Kd relative to WT” value in [3] was 3 fold. Moreover, the “greater [3H]-AP Kd than WT” value in test [4] is listed as ~ 200 fold. Further, in test [5], the “increase in [3H]-AP Kd relative to WT” value is given as ~ 100 fold.

For `[Ca+2]` [Ca^2+], in [1], the “% inhibition of inward current” value is given as ~ 50% and the “% inhibition of outward current” value is given as ~ 20%.

For the compound `NC(=O)c1cccnc1` [NAM, nicotinamide], in test [6], the “weaker NAM affinity than WT” value is ~ 10 fold. The NAM-induced channel activity entry in [7] is listed as “abolishes”. The “raising of Ki for NAM relative to WT” value in test [8] was “two orders of magnitude”. The “lowering of NAM binding affinity relative to WT” value in test [9] was above 100 fold. The Ki in test [9] (read-out: Ki NAM, competition with [3H]-AP, affinities exceeding 10 mM could not be accurately determined) is above 10000 µM. In addition, the “increase of Ki for NAM relative to WT” value in test [10] was ~ 10 fold. In addition, in [1] (1 mM NAM, ±60 mV), the “effect on whole-cell current” value was “robustly stimulated”. Besides, the “desensitization and reversibility of evoked currents” value in [1] (prolonged or repeated application, washout) was “non-desensitizing upon prolonged or repeated application and are reversible upon washout”. In addition, the EC50 in [1] (read-out: apparent EC50) is around 100 µM.
